Assay results from patent US20110165115A1, “SYNERGISTIC ATTRACTANTS FOR PESTIFEROUS SOCIAL INSECTS” (STERLING INTERNATIONAL INC., priority 2010, published 2011).

Experiments:
D. maculata = test: Field trapping Experiment 2, DMNT dose-response with W•H•Y top attractants; assay type: in vivo, Dolichovespula maculata; details: Exp 2, DMNT added to WHY top attractant
Method: (§1) Three field trapping experiments were carried out during late July to early August 2009, in residential and woody areas around Spokane, Wash., USA, using the newly marketed Rescue® W•H•Y traps (www.rescue.com). As used herein, the W•H•Y trap is a trap in accordance with the description of United States Patent Application Publication No. 2009/0151228. The W•H•Y trap has a top chamber and a bottom chamber. The top chamber is baited with two attractants—one of which is a solid contained in a vial (2-methyl-1-butanol) and the other a liquid mixed with water (acetic acid), herein referred to as the W•H•Y top attractant. The bottom chamber is baited with a liquid attractant (heptyl butyrate) poured onto a cotton pad, herein referred to as the W•H•Y bottom attractant. Separation of the top and bottom attractants (otherwise antagonistic to each other when released from the same chamber) in two chambers was a design feature of this trap and creates two focal attraction sources from one trap for different species of wasps, hornets, and yellowjackets. Traps were hung 1.5-2.0 m above the ground on either the fence or tree branches ca. 5 m apart within each trap line. For each trapping experiment, six sets of traps were deployed with their initial trap positions within each set being randomized. To minimize positional effects and obtain more replications, wasp collections and trap re-randomization were carried out when ≧10-20 wasps were caught in the best trap. Each replicate lasted several days depending on wasp flight activity. Captured wasps were removed from the traps and kept in the zip-bags before taking back to the laboratory for recording of the species, gender status, and catch.
Experiment 1 (Jul. 22-30, 2009) tested ten synthetic HIPV candidates [(E)-2-hexenal, (Z)-3-hexen-1-ol, (Z)-3-hexenyl acetate, cis-ocimene, linalool, methyl salicylate, geranyl acetate, trans-β-caryophyllene, trans-β-farnesene and (E)-4,8-dimethyl-1,3,7-nonatriene], including several paper wasp EAD-active compounds (see FIG. 2 for details), to determine their potential synergistic effect on the Rescue® W•H•Y trap attractants to paper wasps, yellowjackets, and hornets. Experiment 2 (Aug. 5-13, 2009) tested behavioral responses of the paper wasps and yellowjackets to the Rescue® W•H•Y trap attractants (top attractants only) and its combination with (E)-4,8-dimethyl-1,3,7-nonatriene, one of the EAD-active and behaviorally significant HIPVs, in a dose-response fashion. Experiment 3 (Aug. 5-13, 2009) was conducted to determine the potential behavioral activity of different doses of (E)-4,8-dimethyl-1,3,7-nonatriene alone. The individual (or different doses) HIPVs were loaded into either polyethylene bags or centrifuge tube type of dispensers, and released from the top of the W•H•Y trap chamber. W•H•Y trap attractants (both top and bottom or top only) alone and water (top chamber only) were included in the test as positive and blank controls, respectively. The dispenser types, loading and release rates of the tested semiochemicals are described in Tables 1, 2 and 3.
(§2) Trap catch data were converted to proportion (P) of total captured wasps within each replicate. Data were then transformed by arcsin√P to meet the assumptions of normality and homogeneity of variances for ANOVA. Means were compared by ANOVA followed by the Ryan-Einot-Gabriel-Welsh (REGW) multiple Q test (SPSS 16.0 for Windows) at α=0.05.

V. atropilosa [1] = test: as above; assay type: in vivo, Vespula atropilosa; details: Exp 2, DMNT added to WHY top attractant
Method: as §1
(§3) Experiment 3 (Aug. 5-13, 2009) was conducted to determine the potential behavioral activity of different doses of (E)-4,8-dimethyl-1,3,7-nonatriene alone. The individual (or different doses) HIPVs were loaded into either polyethylene bags or centrifuge tube type of dispensers, and released from the top of the W•H•Y trap chamber. W•H•Y trap attractants (both top and bottom or top only) alone and water (top chamber only) were included in the test as positive and blank controls, respectively. The dispenser types, loading and release rates of the tested semiochemicals are described in Tables 1, 2 and 3.
as §2

V. pensylvanica = test: Field trapping Experiment 3, different doses of DMNT alone; assay type: in vivo, Vespula pensylvanica
Method: as §1, §3, §2

P. dominulus = test: as above; assay type: in vivo, Polistes dominulus
Method: as §1, §3, §2

[2] = test system: Polistes dominulus worker antennae; test: GC-EAD of cherry branch aeration samples
Method: Lapin cherry branches with severely damaged cherries and leaves and undamaged or slightly damaged branches were collected from a cherry orchard at Creston, Canada, on Jul. 29, 2009, and were transported to the Sterling International, Inc. lab (Spokane, Wash.) on the same day and kept at 4° C. before aerations. Headspace volatiles from the cherry branches (damaged or undamaged) were sampled by a battery operated pump and a high density polyacetate oven bag (48.2×59.6 cm Reynolds® Oven Bag; Richmond, Va., USA) enclosure with one activated charcoal filter tube in the air inlet, on Jul. 30, 2009. The volatiles in the enclosure were trapped on one Porapak Q tube (50/80 mesh; 30 mg in Teflon tube: 3 mm×35 mm) for 2.5 hr (airflow 300 ml/min) and extracted with 1 ml redistilled pentane. Aeration samples of the cherry branches (damaged or undamaged/slightly damaged) were injected (3 μl) splitless into a Varian CP-3800 GC equipped with a polar column (HP-INNOWax; 30 m×0.53 mm×1.0 μm film thickness; […] Helium was used as the carrier gas, and the injector and detector temperatures were 250° C. and 300° C., respectively. Column temperature was 50° C. for 1 min, rising to 240° C. at 10° C./min, and then held for 10 min. The outlet for the EAD was held in a humidified air stream flowing at 0.5 m/sec over the antennal preparation. EAD recordings were made using silver wire-glass capillary electrodes filled with Beadle-Ephrussi Ringer on freshly cut antennae. The antennal signals were stored and analyzed on a PC equipped with a serial IDAC interface box and the program EAD ver. 2.5 (Syntech, Hilversum, The Netherlands). […] (See FIG. 2.) The same chemicals were also tested on beneficial insect antennae from Chrysopa oculata, Myrmeleon crudelis, Podisus maculiventris, and Hippodarnia convergens. (See […] active peaks in the aeration samples were identified by GC-MS on an HP 6890 GC series coupled with an HP 5973 Mass Selective Detector using the same type of GC column and conditions as described above. Compounds were identified by comparison of retention times with those of authentic standards and with mass spectra of standards.

V. atropilosa [3] = assay type: in vivo, Vespula atropilosa; details: Exp 1; HIPV added to WHY attractant in the top chamber, or WHY alone
[4] = release rate 0.25, hole 0.5 mm, loading 15 μL
[5] = release rate 0.5, hole 1 mm, loading 30 μL
[6] = release rate 1, hole 2 mm, loading 75 μL
[7] = release rate 1.5, hole 3 mm, loading 175 μL
[8] = release rate 2, hole 5.5 mm, loading 325 μL
[9] = Exp 3, release rate 0.25, hole 0.5 mm, loading 15 μL
[10] = Exp 3, release rate 0.5, hole 1 mm, loading 30 μL
[11] = Exp 3, release rate 1, hole 2 mm, loading 75 μL
[12] = Exp 3, release rate 1.5, hole 3 mm, loading 175 μL
[13] = Exp 3, release rate 2, hole 5.5 mm, loading 325 μL
[14] = aeration of severely damaged cherry branches, at current release rates
[15] = aeration of undamaged or slightly damaged cherry branches

## C=C/C=C(\C)CCC=C(C)C [(E)-4,8-dimethyl-1,3,7-nonatriene]
D. maculata; [4]
  Total Yellowjackets Caught D. maculata: 0
D. maculata; [5]
  Total Yellowjackets Caught D. maculata: 1
D. maculata; [6]
  Total Yellowjackets Caught D. maculata: 1
D. maculata; [7]
  Total Yellowjackets Caught D. maculata: 0
D. maculata; [8]
  Total Yellowjackets Caught D. maculata: 0
V. atropilosa [1]; [4]
  Total Yellowjackets Caught V. atropilosa: 0
V. atropilosa [1]; [5]
  Total Yellowjackets Caught V. atropilosa: 0
V. atropilosa [1]; [6]
  Total Yellowjackets Caught V. atropilosa: 0
V. atropilosa [1]; [7]
  Total Yellowjackets Caught V. atropilosa: 0
V. atropilosa [1]; [8]
  Total Yellowjackets Caught V. atropilosa: 1
V. pensylvanica; [9]
  Total Yellowjackets Caught V. pensylvanica: 43
V. pensylvanica; [10]
  Total Yellowjackets Caught V. pensylvanica: 12
V. pensylvanica; [11]
  Total Yellowjackets Caught V. pensylvanica: 34
V. pensylvanica; [12]
  Total Yellowjackets Caught V. pensylvanica: 24
V. pensylvanica; [13]
  Total Yellowjackets Caught V. pensylvanica: 24
P. dominulus; [9]
  Total Paper Wasps Caught P. dominulus: 7
P. dominulus; [10]
  Total Paper Wasps Caught P. dominulus: 6
P. dominulus; [11]
  Total Paper Wasps Caught P. dominulus: 4
P. dominulus; [12]
  Total Paper Wasps Caught P. dominulus: 17
P. dominulus; [13]
  Total Paper Wasps Caught P. dominulus: 10
[2]; [14]
  EAD response of worker antennae: significant EAD response
V. atropilosa [3]
  Total Yellowjacket Catches V. atropilosa: 3

## COC(=O)c1ccccc1O [Methyl Salicylate, methyl salicylate]
[2]; [14]
  EAD response of worker antennae: did not elicit significant EAD-responses
V. atropilosa [3]
  Total Yellowjacket Catches V. atropilosa: 4

## CC/C=C\CCO [Z-3-Hexanol, (Z)-3-hexen-1-ol]
[2]; [14]
  EAD response of worker antennae: did not elicit significant EAD-responses
[2]; [15]
  EAD response of worker antennae: strongly responded
V. atropilosa [3]
  Total Yellowjacket Catches V. atropilosa: 0

## CC/C=C\CCOC(C)=O [Z-3-Hexenyl Acetate, (Z)-3-hexenyl acetate]
[2]; [14]
  EAD response of worker antennae: did not elicit significant EAD-responses
[2]; [15]
  EAD response of worker antennae: strongly responded
V. atropilosa [3]
  Total Yellowjacket Catches V. atropilosa: 0
